Laboratory results taken from patent US8835617B2, “Polynucleotides encoding a human TRIM-Cyp fusion polypeptide, compositions thereof, and methods of using same” (priority 2008, dated 2014).
Read-outs that look alike come from different tables or passages of the source.

Columns and labels:
HIV-1 [1] = details: quantitative PCR, Jurkat
Description: Since the objective was to engineer a fully human HIV-1 restriction factor, hCypA was the fused at 10 different positions along the length of hT5α (FIG. 44A).
Total cellular DNA was extracted from 2×10^6 Jurkat T cells using the DNeasy Blood and Tissue kit (Qiagen). qPCR was performed with the Applied Biosystems 7900HT system, using 250 ng total DNA and Taqman Gene Expression master mix (Applied Biosystems). Each experimental condition was performed in triplicate and data analyzed using the SDS software, version 2.2.2 (Applied Biosystems).

HIV-1 [2] = test system: HIV-1
Excerpt: CD4^+ T cells were enriched from PBMCs using MACS, and activated using irradiated allo-PBMC and IL-2. […] Cells were sorted based on GFP-expression and then challenged with replication-competent, CXCR4-tropic, HIV-1NL4-3. […] Cells were infected with HIV-1NL4-3, modified to be CCR5-tropic.
293T human embryonic kidney cells and CRFK feline kidney cells were maintained in DMEM supplemented with 10% fetal bovine serum (FBS) and glutamax (Invitrogen). […] CD4^+ T cells were enriched from PBMCs (>99% CD4^+) using positive selection magnetic beads (Miltenyi Biotec) and stimulated for 24 hrs on multisorb 96-well plates (Nunc) coated with 2 μg/ml anti-CD3 and 2 μg/ml anti-CD28 antibodies (BD Biosciences) in RPMI with 10% FBS, glutamax (Invitrogen) and 20 IU/ml hIL-2. When indicated and in preparation for adoptive transfer to mice, CD4^+ T cells were stimulated using allogeneic-PBMCs irradiated at 50 Gy in the presence of 20 IU/ml IL-2 and phytohemagglutinin (PHA) at 1 μg/ml. Cells were washed and replated 24 hrs prior to viral transduction. […]
2×10^4 adherent cells/well or 8×10^4 suspension cells/well were plated in 48-well plates (Nunc) for challenge with single-cycle GFP reporter vectors that were titered as indicated. GFP synthesis was assessed by flow cytometry 48 hrs post-infection. […] For infection of 10^6 primary CD4^+ T cells or macrophages, 15 ng p24/10^6 cells of a CXCR4- or CCR5-tropic HIV-1NL4-3 stock was used, and infection was monitored by assessing the accumulation of RT activity in the supernatant (Sayah et al., 2004). FACSCalibur, Cellquest Pro (Becton Dickinson), and FlowJo software (Treestar, Inc.) were used to record and analyze fluorescence. […]
CD4^+ T cells and monocyte-derived macrophages were infected with low passage derivatives of primary isolates HIV-1DH12 and HIV-1132W, respectively. […] Infection was monitored by assessing the accumulation of RT activity in the supernatant at the indicated day post-infection, at which point CD4^+ cells were split and macrophages were fed as required.

[3] = test system: primary human CD4+ T cells; test: Proliferation, IL-2 production and surface markers of transduced primary CD4+ T cells; format: cell-based
Excerpt: The functions of endogenous CypA and T5 in hCD4^+ T cells remain largely uncharacterized. […] This complex inhibits T cell function by binding to the serine/threonine phosphatase calcineurin and blocking downstream signaling events (Handschumacher et al., 1984; Liu et al., 1991). Functionally, CypA is a peptidyl-prolyl isomerase (PPiase) which catalyses the rate-limiting cis-trans interconversion of peptide bonds N-terminal to proline, an enzymatic activity not required for immunosuppression via CsA (Fischer et al., 1984; Liu et al., 1991; Schmid, 1995). The peptidyl-prolyl isomerases are represented by three structurally distinct families: cyclophilins, FKBPs, and parvulins. Given their astounding evolutionary persistence, from some archeabacteria to all mammals, cyclophilins are not well understood (Colgan et al., 2000; Gothel and Marahiel, 1999).
Activated, scAPLS-transduced primary human CD4^+ T cells were maintained in culture for 6 days. 1×10^5 cells were transferred in triplicate into 96-well flat-bottom microplates (Falcon) and labeled for 18 h with […] of ^[3H]thymidine (GE-Amersham). The DNA-incorporated radioactivity was measured by liquid scintillation counting. Data were expressed as mean corrected counts per minute (ccpm) of […] cultures.
IL-2 producing capacity of hT5Cyp-expressing primary human T cells was assessed after stimulation for 6 h with 100 nM PMA and 1 μg/ml Ionomycin (Sigma-Aldrich). Brefeldin A (Sigma-Aldrich) was added at 10 μg/ml during the last 4 h of stimulation.
The following antibodies were used for cell surface stains of primary CD4^+ T cells: α-CD4 (RPA-T4), α-CXCR4 (12G5), and α-MHC I (HLA A, B, C) (G46-2.6) (all from BD-Pharmingen).

## hT5Cyp: human TRIM5α fused at serine 322 to human cyclophilin A, SEQ ID NO:12
HIV-1 [1]
  accumulation of viral cDNA: blocked the accumulation of viral cDNA
HIV-1 [2]; CCR5-tropic HIV-1NL4-3
  establishment of infection: infection is not established
HIV-1 [2]; CXCR4-tropic HIV-1NL4-3
  establishment of infection: infection was not established
HIV-1 [2]; primary isolate HIV-1DH12
  block to infection: The same hT5Cyp-mediated block to infection
[3]; PMA and ionomycin
  IL-2 production: produced comparable amounts of IL-2
[3]; thymidine incorporation vs untransduced
  proliferation: proliferated at the same rate as untransduced cells
[3]; vs untransduced
  cell-surface marker expression: expressed the same level of cell-surface CD4, CXCR4, and MHC I
